Measured values reported in US8940310B2, “Methods of treatment using TLR7 and/or TLR9 inhibitors” (Dynavax Technologies Corporation, priority 2010, dated 2015).

Test system: TLR7 and TLR9
Test: Tape stripping skin injury in 129 mice
Format: in vivo
Settings: 24 hr
Protocol: C57BL/6 and 129 mice were purchased from Charles River Laboratories. (NZBxNZW)F1 female mice were purchased from Jackson Laboratories and used at 18-22 weeks of age. MyD88/KO and TLR9/KO mouse colonies were maintained at Simonsen Laboratories and used with age matched C57BL/6 wild type controls at 8-12 weeks of age. Tape stripping was performed after shaving the dorsal area (3×3 cm) using 10 strokes with duct tape. IRS was administered just before tape stripping SC at a distant site. Alternatively, in (NZBxNZW)F1 mice, IRS was administered long term. In certain experiments PDC and neutrophils were depleted with 250 μg of antibody given IP at day −2 and day 0, eight hours before tape stripping. Anti-120G8 (Imgenex) was used for depletion of PDC (Asselin-Paturel et al., 2003), and anti-GR1-LY6G (clone 1A8; Biolegend) was used for depletion of neutrophils (Daley et al., 2008). […] Percentage of area with open lesions in (NZBxNZW)F1 and normal mice was evaluated with Nikon software NIS-elements.
For analysis of cellular infiltrate mice were sacrificed 24 hr later and epidermis and derma were mechanically separated followed by enzymatic digestion with 0.28 U/ML of Liberase 3 (Roche) for 20 minutes at 37° C., passed trough a 70 μm filter washed in RPMI without serum, counted and stained for flow cytometric analyses. […]

5′-TGCTCCTGGAGGGGTTGT-3′ (DNA, backbone not given here) [SEQ ID NO:42]
expression of IFN-α regulated and pro-inflammatory genes in skin (100 μg s.c. before tape stripping): significantly reduced the expression of both IFN-α regulated genes and pro-inflammatory genes
infiltration of cells including PDC and neutrophils: no measurable effect on infiltration of cells
